Measured values from patent US11325929B2 (VivaVisionShanghaiLtd, priority 2017, dated 2022).

The molecules below were run on human T lymphocyte strain Jurkat (ATCC TIB-152) adhesion to ICAM-1 (assay: T-cell adhesion assay (Jurkat cells on ICAM-1 coated plates)). Details: BCECF-AM labelled Jurkat cells, ICAM-1 coated plate, fluorescence readout; read-out: EC50 of cell adhesion and inhibition.
Type: cell-based
Experimental: Cell Adhesion Inhibition Experiments:
T-cell adhesion assay was performed using human T lymphocyte strain Jurkat (ATCC TIB-152): goat Anti-Human IgG (Fc specific) (Sigma 18885) was diluted to 10 μg/ml in PBS, incubated 100 μL per well/96 well plate at 4° C. for 12 hours. Liquid in the well plate was poured off, blocked with 200 μL of 1% BSA at 37° C. for 90 minutes, and washed three times with PBS. 50 μL of 1 μg/mL ICAM-1 (containing 0.1% BSA, 0.01% Tween 20) was added to each well and incubated at 37° C. for 3 hours. The plate was washed 3 times with assay buffer (20 mM HEPES pH 7.6, 140 mM NaCl, 1 mM MgCl2, 1 mM MnCl2, 0.2% glucose).
The Jurkat […] was centrifuged at 100-G, and cells were resuspended in an assay buffer (20 mM HEPES pH 7.6, 140 mM NaCl, 1 mM MgCl2, 1 mM MnCl2, 0.2% glucose) at 37° C.
2 μl of 1 mM of BCECF-AM per mL of the cell suspension was added. Incubated at 37° C. for 30 minutes, stirred up every 10 minutes during the incubation. After the incubation, the cells were washed with assay buffer at 37° C. The cells were suspended to a concentration of 6×10^6/mL.
The inhibitor was diluted to a final concentration of 2× in assay buffer, and 50 μL of the compound solution and […] of Jurkat cells were mixed at room temperature, and incubated at 37° C. for 30 minutes. 100 μL/well of cells and inhibitors were added to the plate and incubated for 1 hour at room temperature. The total fluorescence was measured by a fluorometer: ex: 485; em: 530; cutoff: 530 to measure the total fluorescence. The plate was washed once with the assay buffer and the fluorescence was measured with a fluorometer: ex: 485; em: 530; cutoff. The results are plotted as inhibition-concentration plots and EC50 is calculated using standard methods.

“2-(2,6-dichloro-4-(2-(methyl(3-hydroxyphenyl)phosphoryl)ethyl)benzylamino)-3-(3,5-(dimethylsulfonyl)phenyl)propionic Acid [Example 36]” showed an EC50 of 30 nM.

Same assay, conditions: Homo sapiens; BCECF-AM labelled Jurkat cells, ICAM-1 coated plate, fluorescence readout; read-out: EC50 of cell adhesion and inhibition

Going from `CS(=O)(=O)c1cccc(C[C@H](NC(=O)c2c(Cl)cc(CCP(=O)(O)c3ccccc3)cc2Cl)C(=O)O)c1` [Example 1, (2s)-2-(2,6-dichloro-4-(2-(hydroxy(phenyl)phosphoryl)ethyl)benzamido)-3-(3-(methylsulfonyl)phenyl)propionic Acid] to `CP(=O)(CCc1cc(Cl)c(C(=O)N[C@@H](Cc2cccc(S(C)(=O)=O)c2)C(=O)O)c(Cl)c1)c1ccccc1` (some centres unmarked) [Example 10, (2s)-2-(2,6-dichloro-4-(2-(methyl(phenyl)phosphoryl)ethyl)benzamide)-3-(3-(methylsulfonyl)phenyl)propionic Acid], the EC50 rises from 30 nM to 78 nM (2.6-fold).

`CS(=O)(=O)c1cccc(C[C@H](NC(=O)c2c(Cl)cc(C#CP(=O)(O)c3cccc(O)c3)cc2Cl)C(=O)O)c1` [Example 2] and `CP(=O)(C#Cc1cc(Cl)c(C(=O)N[C@@H](Cc2cccc(S(C)(=O)=O)c2)C(=O)O)c(Cl)c1)c1cccc(O)c1` (some centres unmarked) [Example 11] are within 1.5-fold of each other in EC50: 9.4 nM for the first, 13.5 nM for the second.

`CS(=O)(=O)c1cccc(C[C@H](NC(=O)c2c(Cl)cc(CCP(=O)(O)c3cccc(O)c3)cc2Cl)C(=O)O)c1` [Example 3, (2s)-2-(2,6-dichloro-4-(2-(hydroxy(m-hydroxyphenyl)phosphoryl)ethyl)benzamido)-3-(3-(methylsulfonyl)phenyl)propionic Acid] and `CP(=O)(CCc1cc(Cl)c(C(=O)N[C@@H](Cc2cccc(S(C)(=O)=O)c2)C(=O)O)c(Cl)c1)c1cccc(O)c1` (some centres unmarked) [Example 14] are the same in EC50: 8.5 nM for the first, 8.5 nM for the second.

Compared with `COP(=O)(C#Cc1cc(Cl)c(C(=O)N[C@@H](Cc2cccc(S(C)(=O)=O)c2)C(=O)O)c(Cl)c1)c1ccccc1` (some centres unmarked) [Example 5], `CP(=O)(C#Cc1cc(Cl)c(C(=O)N[C@@H](Cc2cccc(S(C)(=O)=O)c2)C(=O)O)c(Cl)c1)c1ccccc1` (some centres unmarked) [Example 9] is 1.9-fold lower in EC50: 22 nM for the first, 11.8 nM for the second. The second is the more potent here.

Going from `CCOP(=O)(CCc1cc(Cl)c(C(=O)N[C@@H](Cc2cccc(S(C)(=O)=O)c2)C(=O)O)c(Cl)c1)c1cccc(O)c1` (some centres unmarked) [Example 6, (2s)-2-(2,6-dichloro-4-(2-(ethoxy(m-hydroxyphenyl)phosphoryl)ethyl)benzamido)-3-(3-(methylsulfonyl)phenyl)propionic Acid] to `COP(=O)(CCc1cc(Cl)c(C(=O)N[C@@H](Cc2cccc(S(C)(=O)=O)c2)C(=O)O)c(Cl)c1)c1cccc(O)c1` (some centres unmarked) [Example 8, (2s)-2-(2,6-dichloro-4-(2-(methoxy(3-hydroxyphenyl)phosphoryl)ethyl)benzylamido)-3-(3-(methylsulfonyl)phenyl)propionic Acid], the EC50 falls from 17 nM to 6.2 nM (2.7-fold).

Compared with `COP(=O)(C#Cc1cc(Cl)c(C(=O)N[C@@H](Cc2cccc(S(C)(=O)=O)c2)C(=O)O)c(Cl)c1)c1cccc(O)c1` (some centres unmarked) [Example 7], `COc1cccc(P(=O)(C#Cc2cc(Cl)c(C(=O)N[C@@H](Cc3cccc(S(C)(=O)=O)c3)C(=O)O)c(Cl)c2)OC)c1` (some centres unmarked) [Example 12] is 4-fold higher in EC50: 7.2 nM for the first, 29 nM for the second.

Compared with `COc1cccc(P(=O)(O)C#Cc2cc(Cl)c(C(=O)N[C@@H](Cc3cccc(S(C)(=O)=O)c3)C(=O)O)c(Cl)c2)c1` [Example 13], `CS(=O)(=O)c1cccc(C[C@H](NC(=O)c2c(Cl)cc(C#CP(=O)(O)c3ccccc3)cc2Cl)C(=O)O)c1` [Example 16] is 4-fold lower in EC50: 29 nM for the first, 7.2 nM for the second. The second is the more potent here.

Going from `CP(=O)(C#Cc1cc(Cl)c(C(=O)N[C@@H](Cc2cccc(S(C)(=O)=O)c2)C(=O)O)c(Cl)c1)c1ccc(O)cc1` (some centres unmarked) [Example 15] to `CP(=O)(C#Cc1cc(Cl)c(C(=O)N[C@@H](Cc2cccc(S(C)(=O)=O)c2)C(=O)O)c(Cl)c1)c1ccc(O)c(Cl)c1` (some centres unmarked) [Example 48], the EC50 rises from 1.8 nM to 6.8 nM (3.8-fold).

`CP(=O)(CCc1cc(Cl)c(C(=O)N[C@@H](CNC(=O)c2cccs2)C(=O)O)c(Cl)c1)c1cccc(O)c1` (some centres unmarked) [Example 17, (2s)-2-(2,6-dichloro-4-(2-(methyl(3-hydroxyphenyl)phosphoryl)ethyl)benzamido)-3-(2-thenoylamide)propyl Acid] and `CP(=O)(CCc1cc(Cl)c(C(=O)N[C@@H](CNC(=O)c2cccc(O)c2)C(=O)O)c(Cl)c1)c1cccc(O)c1` (some centres unmarked) [Example 34, (2s)-2-(2,6-dichloro-4-(2-(methyl(3-hydroxyphenyl)phosphoryl)ethyl)benzamido)-3-(3-hydroxybenzamido)propionic Acid] are within 1.5-fold of each other in EC50: 15 nM for the first, 12.5 nM for the second.

First: CP(=O)(CCc1cc(Cl)c(C(=O)N[C@@H](CN/C(=N\C#N)N2CC[C@@H](O)C2)C(=O)O)c(Cl)c1)c1cccc(O)c1 (stereo partly drawn) [Example 19, (2s)-3-((R)—N′-cyano-3-hydroxytetrahydropyrrol-1-formamidino)-2-(2,6-dichloro-4-(2-(methyl(3-hydroxyphenyl)phosphoryl)ethyl)benzamido)propionic Acid]
Second: CP(=O)(CCc1cc(Cl)c(C(=O)N[C@@H](CN/C(=N\C#N)N2C[C@@H](O)[C@H](O)C2)C(=O)O)c(Cl)c1)c1cccc(O)c1 (stereo partly drawn) [Example 45, (2s)-3-((trans)-N′-cyano-3,4-dihydroxypyrrolidine-1-formamidino)-2-(2,6-dichloro-4-(2-(methyl(3-hydroxyphenyl)phosphoryl)ethyl)benzamido)propionic Acid]
The EC50 of the first is lower: 230 nM for the first, over 1000 nM for the second.

First: CCP(=O)(CCc1cc(Cl)c(C(=O)N[C@@H](Cc2cccc(S(C)(=O)=O)c2)C(=O)O)c(Cl)c1)c1cccc(O)c1 (some centres unmarked) [Example 21]
Second: CCCCP(=O)(CCc1cc(Cl)c(C(=O)N[C@@H](Cc2cccc(S(C)(=O)=O)c2)C(=O)O)c(Cl)c1)c1cccc(O)c1 (some centres unmarked) [Example 23]
The EC50 of the first is 8.4-fold lower: 7.3 nM for the first, 61 nM for the second.

First: CS(=O)(=O)c1cccc(C[C@H](NC(=O)c2c(Cl)cc(CCP(=O)(c3cccc(O)c3)C3CC3)cc2Cl)C(=O)O)c1 (some centres unmarked) [Example 22]
Second: C[P@](=O)(CCc1cc(Cl)c(C(=O)N[C@@H](Cc2cccc(S(C)(=O)=O)c2)C(=O)O)c(Cl)c1)c1cccc(O)c1 [Example 30]
The EC50 of the first is 3.1-fold higher: 22 nM for the first, 7.2 nM for the second.

First: CP(=O)(CCc1cc(Cl)c(C(=O)N[C@@H](Cc2cccc(S(C)(=O)=O)c2)C(=O)O)c(Cl)c1)c1ccc2ccoc2c1 (some centres unmarked) [Example 25]
Second: C[P@@](=O)(CCc1cc(Cl)c(C(=O)N[C@@H](Cc2cccc(S(C)(=O)=O)c2)C(=O)O)c(Cl)c1)c1cccc(O)c1 [Example 31]
The EC50 of the first is 8.9-fold higher: 63 nM for the first, 7.1 nM for the second.

Compared with `CP(=O)(CCc1cc(Cl)c(C(=O)N[C@@H](Cc2cccc(S(C)(=O)=O)c2)C(=O)O)c(Cl)c1)c1cc2ccccc2o1` (some centres unmarked) [Example 26], `CP(=O)(CCc1cc(Cl)c(C(=O)N[C@@H](Cc2cccc(S(C)(=O)=O)c2)C(=O)O)c(Cl)c1)c1ccc(O)cc1` (some centres unmarked) [Example 33] is 2.1-fold lower in EC50: 23 nM for the first, 10.8 nM for the second. The second is the more potent here.

Going from `CCOP(=O)(/C=C/c1cc(Cl)c(C(=O)N[C@@H](Cc2cccc(S(C)(=O)=O)c2)C(=O)O)c(Cl)c1)c1cccc(O)c1` (stereo partly drawn) [Example 32, (S,E)-2-(4-(2-(3-hydroxyphenyl)phosphonovinyl)-2,6-dichlorobenzamide)-3-(3-(methylsulfonyl)phenyl)propionic Acid] to `CS(=O)(=O)c1cccc(C[C@H](NC(=O)c2c(Cl)cc(C(O)CP(=O)(O)c3cccc(O)c3)cc2Cl)C(=O)O)c1` (some centres unmarked) [Example 50, (2s)-2-(2,6-dichloro-4-(1-hydroxy 2-(hydroxy(3-hydroxyphenyl)phosphoryl)ethyl)benzamido)-3-(3-(methylsulfonyl)phenyl)propionic Acid], the EC50 rises from 3.7 nM to 16 nM (4.3-fold).

First: CP(=O)(CCc1cc(Cl)c(C(=O)N[C@@H](CNC(=O)c2cc(O)cc(O)c2)C(=O)O)c(Cl)c1)c1cccc(O)c1 (some centres unmarked) [Example 35, (2s)-2-(2,6-dichloro-4-(2-(methyl(3-hydroxyphenyl)phosphoryl)ethyl)benzamido)-3-(3,5-dihydroxybenzamido)propionic Acid]
Second: CP(=O)(CCc1cc(Cl)c(C(=O)N[C@@H](Cc2cncc(S(C)(=O)=O)c2)C(=O)O)c(Cl)c1)c1cccc(O)c1 (some centres unmarked) [Example 38]
The EC50 of the first is 6.3-fold lower: 3.8 nM for the first, 24 nM for the second. The first is the more potent here.

Compared with `CP(=O)(CCc1cc(Cl)c(C(=O)N[C@@H](CCCCNS(C)(=O)=O)C(=O)O)c(Cl)c1)c1cccc(O)c1` (some centres unmarked) [Example 37], `CP(=O)(CCc1cc(Cl)c(C(=O)N[C@@H](CC2CCN(S(C)(=O)=O)C2)C(=O)O)c(Cl)c1)c1cccc(O)c1` (some centres unmarked) [Example 42] is lower in EC50: over 1000 nM for the first, 150 nM for the second. The second is the more potent here.

First: CP(=O)(CCc1cc(Cl)c(C(=O)N[C@@H](CN/C(=N\C#N)N(CCO)CCO)C(=O)O)c(Cl)c1)c1cccc(O)c1 (some centres unmarked) [Example 46, (2s)-3-(2-cyano-3,3-bis(2-hydroxyethyl)guanidino)-2-(2,6-dichloro-4-(2-(methyl(3-hydroxyphenyl)phosphoryl)ethyl)benzamido)propionic Acid]
Second: COP(=O)(C#Cc1cc(Cl)c(C(=O)N[C@@H](Cc2cccc(S(C)(=O)=O)c2)C(=O)O)c(Cl)c1)c1ccccc1O (some centres unmarked) [Example 47]
The EC50 of the first is higher: over 1000 nM for the first, 340 nM for the second.

`CS(=O)(=O)c1cccc(C[C@H](NC(=O)c2c(Cl)cc(C#CP(=O)(O)c3ccc4ccoc4c3)cc2Cl)C(=O)O)c1` [Example 49] gave an EC50 of 10.8 nM.
